Results from ChEMBL document CHEMBL4295262, “Evaluation of the utility of stem-cell derived cardiomyocytes for drug proarrhythmic potential” (2019).
Blank lines part the entries; values can stand above or below the compound they belong to.

Experiments:
[1] = (§1) Electrical activity assay on cell lines treated with a given drug. DMSO was used as a vehicle and a control, unblinded dofetilide was used as a control.; settings: human, ipsc-cm, 0.003 µM
[2] = as §1; type: ADME, cell-based; design: FPDc: unit not given here; settings: human, ipsc-cm
[3] = as §1; type: ADME, cell-based; settings: human, ipsc-cm, 0.005 µM; concentration (um) 0.005 uM
[4] = as §1; settings: human, ipsc-cm
[5] = as §1; settings: human, ipsc-cm; remark: listed apart in the source
[6] = as §1; type: ADME, cell-based; settings: human, ipsc-cm, 0.003 µM; concentration (um) 0.003 uM
[7] = as §1; settings: human, ipsc-cm; remark: listed apart in the source
[8] = as §1; type: cell-based; design: APDc: unit not given here; settings: human, ipsc-cm
[9] = as §1; type: ADME, cell-based; design: FPDc: unit not given here; settings: human, ipsc-cm, 0.003 µM; concentration (um) 0.003 uM
[10] = 0.001 µM, concentration (um) 0.001 uM
[11] = 0.0032 µM, concentration (um) 0.0032 uM
[12] = 0.01 µM, concentration (um) 0.01 uM
[13] = 0.0003169 µM, concentration (um) 0.000316912 uM
[14] = 0.001001 µM, concentration (um) 0.00100144 uM
[15] = 0.003165 µM, concentration (um) 0.00316456 uM
[16] = 0.005 µM, concentration (um) 0.005 uM
[17] = 0.0001 µM, concentration (um) 0.0001 uM
[18] = 0.1 µM, concentration (um) 0.1 uM
[19] = 3.169 µM, concentration (um) 3.16912 uM
[20] = 10.01 µM, concentration (um) 10.0144 uM
[21] = 31.65 µM, concentration (um) 31.6456 uM
[22] = 100 µM, concentration (um) 100 uM

- APDc [1]: 63.81
- FPD measurement [1]: 63.81 FPDc
- FPDc ([2]; 0.0003 µM, concentration (um) 0.0003 uM): 0.03867
- FPDc [2, 10]: 0.04061
- FPDc ([2]; 0.003 µM, concentration (um) 0.003 uM): 0.05119
- FPD measurement [3]: 59.84 FPDc
- FPDc ([4]; 0.0003169 µM): 74.54
- FPDc ([4]; 0.001001 µM): 77.51
- FPDc ([4]; 0.003 µM): 91.98
- FPDc ([4]; 0.003165 µM): 81.19
- FPD measurement ([5]; 0.0003169 µM): 57.26 FPDc
- FPDc ([5]; 0.0003169 µM): 57.26
- FPD measurement ([5]; 0.001001 µM): 62.9 FPDc
- FPDc ([5]; 0.001001 µM): 62.9
- FPD measurement ([5]; 0.003 µM): 58.92 FPDc
- FPDc ([5]; 0.003 µM): 58.92
- FPD measurement ([5]; 0.003165 µM): 74.44 FPDc
- FPDc ([5]; 0.003165 µM): 74.44
- FPD measurement ([5]; 0.0033 µM): 77.41 FPDc
- FPDc ([5]; 0.0033 µM): 77.41
- APDc [8, 13]: 62.54
- FPD measurement [8, 13]: 62.54 FPDc
- APDc [8, 14]: 77.55
- FPD measurement [8, 14]: 77.55 FPDc
- APDc [8, 15]: 79.29
- FPD measurement [8, 15]: 79.29 FPDc
- APDc [8, 16]: 61.92
- FPD measurement [8, 16]: 61.92 FPDc
- FPDc [9]: 32.45
Structure (SMILES): CN(CCOc1ccc(NS(C)(=O)=O)cc1)CCc1ccc(NS(C)(=O)=O)cc1 [DOFETILIDE]
- FPD measurement [2, 11]: More Than Half The Wells Had A Quiescence Event Or Fpdc Readings Of 0
- FPDc [2, 11]: More Than Half The Wells Had A Quiescence Event Or Fpdc Readings Of 0
- FPD measurement [2, 12]: More Than Half The Wells Had A Quiescence Event Or Fpdc Readings Of 0
- FPDc [2, 12]: More Than Half The Wells Had A Quiescence Event Or Fpdc Readings Of 0
- FPDc [3]: 24 Values Out Of 24 Were Excluded Due To Quiescence Or 0 Fpdc
- FPD measurement ([4]; 0.0003169 µM): 5 Values Out Of 5 Were Excluded Due To Quiescence Or 0 Apdc
- FPD measurement ([4]; 0.001001 µM): 5 Values Out Of 5 Were Excluded Due To Quiescence Or 0 Apdc
- FPD measurement ([4]; 0.003165 µM): 5 Values Out Of 5 Were Excluded Due To Quiescence Or 0 Apdc
- FPD measurement ([4]; 0.01 µM): 5 Values Out Of 5 Were Excluded Due To Quiescence Or 0 Apdc
- FPDc ([4]; 0.01 µM): More Than Half The Wells Had A Quiescence Event Or Fpdc Readings Of 0
- FPD measurement ([5]; 0.01 µM): More Than Half The Wells Had A Quiescence Event Or Fpdc Readings Of 0
- FPDc ([5]; 0.01 µM): More Than Half The Wells Had A Quiescence Event Or Fpdc Readings Of 0
- FPD measurement [6]: More Than Half The Wells Had A Quiescence Event Or Apdc Readings Of 0
- FPDc [6]: More Than Half The Wells Had A Quiescence Event Or Fpdc Readings Of 0
- FPD measurement ([7]; 0.0003169 µM): 1 Values Out Of 1 Were Excluded Due To Quiescence Or 0 Fpdc
- FPDc ([7]; 0.0003169 µM): 1 Values Out Of 1 Were Excluded Due To Quiescence Or 0 Fpdc
- FPD measurement ([7]; 0.001001 µM): 1 Values Out Of 1 Were Excluded Due To Quiescence Or 0 Fpdc
- FPDc ([7]; 0.001001 µM): 1 Values Out Of 1 Were Excluded Due To Quiescence Or 0 Fpdc
- FPD measurement ([7]; 0.003165 µM): 1 Values Out Of 1 Were Excluded Due To Quiescence Or 0 Fpdc
- FPDc ([7]; 0.003165 µM): 1 Values Out Of 1 Were Excluded Due To Quiescence Or 0 Fpdc
- FPD measurement ([7]; 0.01 µM): 1 Values Out Of 1 Were Excluded Due To Quiescence Or 0 Fpdc
- FPDc ([7]; 0.01 µM): 1 Values Out Of 1 Were Excluded Due To Quiescence Or 0 Fpdc

- FPDc [2, 17]: 0.0175
- FPDc [2, 10]: 0.01997
- FPDc [2, 12]: 0.0289
- FPDc ([4]; 0.0001 µM): 68.56
- FPDc ([4]; 0.001 µM): 62.64
- FPD measurement ([5]; 0.0001 µM): 56.72 FPDc
- FPDc ([5]; 0.0001 µM): 56.72
- FPD measurement ([5]; 0.001 µM): 63.97 FPDc
- FPDc ([5]; 0.001 µM): 63.97
- APDc [8, 17]: 43.63
- FPD measurement [8, 17]: 43.63 FPDc
- APDc [8, 10]: 43.37
- FPD measurement [8, 10]: 43.37 FPDc
- APDc [8, 12]: 124.5
- FPD measurement [8, 12]: 124.5 FPDc
Structure (SMILES): CCCCCCCN(CC)CCCC(O)c1ccc(NS(C)(=O)=O)cc1 (centres undefined) [IBUTILIDE]
- FPD measurement [2, 18]: More Than Half The Wells Had A Quiescence Event Or Fpdc Readings Of 0
- FPDc [2, 18]: More Than Half The Wells Had A Quiescence Event Or Fpdc Readings Of 0
- FPD measurement ([4]; 0.0001 µM): 5 Values Out Of 5 Were Excluded Due To Quiescence Or 0 Apdc
- FPD measurement ([4]; 0.001 µM): 5 Values Out Of 5 Were Excluded Due To Quiescence Or 0 Apdc
- FPD measurement ([4]; 0.01 µM): 5 Values Out Of 5 Were Excluded Due To Quiescence Or 0 Apdc
- FPDc ([4]; 0.01 µM): 5 Values Out Of 5 Were Excluded Due To Quiescence Or 0 Fpdc
- FPD measurement ([4]; 0.1 µM): More Than Half The Wells Had A Quiescence Event Or Apdc Readings Of 0
- FPDc ([4]; 0.1 µM): More Than Half The Wells Had A Quiescence Event Or Fpdc Readings Of 0
- FPD measurement ([5]; 0.01 µM): More Than Half The Wells Had A Quiescence Event Or Fpdc Readings Of 0
- FPDc ([5]; 0.01 µM): More Than Half The Wells Had A Quiescence Event Or Fpdc Readings Of 0
- FPD measurement ([5]; 0.1 µM): More Than Half The Wells Had A Quiescence Event Or Fpdc Readings Of 0
- FPDc ([5]; 0.1 µM): More Than Half The Wells Had A Quiescence Event Or Fpdc Readings Of 0
- FPD measurement ([7]; 0.0001 µM): 1 Values Out Of 1 Were Excluded Due To Quiescence Or 0 Fpdc
- FPDc ([7]; 0.0001 µM): 1 Values Out Of 1 Were Excluded Due To Quiescence Or 0 Fpdc
- FPD measurement ([7]; 0.001 µM): 1 Values Out Of 1 Were Excluded Due To Quiescence Or 0 Fpdc
- FPDc ([7]; 0.001 µM): 1 Values Out Of 1 Were Excluded Due To Quiescence Or 0 Fpdc
- FPD measurement ([7]; 0.01 µM): 1 Values Out Of 1 Were Excluded Due To Quiescence Or 0 Fpdc
- FPDc ([7]; 0.01 µM): 1 Values Out Of 1 Were Excluded Due To Quiescence Or 0 Fpdc
- FPD measurement ([7]; 0.1 µM): 1 Values Out Of 1 Were Excluded Due To Quiescence Or 0 Fpdc
- FPDc ([7]; 0.1 µM): 1 Values Out Of 1 Were Excluded Due To Quiescence Or 0 Fpdc

- FPDc [2, 19]: 0.03359
- FPDc [2, 20]: 0.03613
- FPDc [2, 21]: 0.03258
- FPDc ([4]; 3.169 µM): 61.11
- FPDc ([4]; 10.01 µM): 74.38
- FPDc ([4]; 31.65 µM): 72.23
- FPDc ([4]; 100 µM): 68
- FPD measurement ([5]; 3.169 µM): 54.76 FPDc
- FPDc ([5]; 3.169 µM): 54.76
- FPD measurement ([5]; 10.01 µM): 55.07 FPDc
- FPDc ([5]; 10.01 µM): 55.07
- FPD measurement ([5]; 31.65 µM): 53.88 FPDc
- FPDc ([5]; 31.65 µM): 53.88
- FPD measurement ([5]; 100 µM): 71.03 FPDc
- FPDc ([5]; 100 µM): 71.03
- APDc [8, 19]: 42.47
- FPD measurement [8, 19]: 42.47 FPDc
- APDc [8, 20]: 43.54
- FPD measurement [8, 20]: 43.54 FPDc
- APDc [8, 21]: 43.18
- FPD measurement [8, 21]: 43.18 FPDc
- APDc [8, 22]: 55.84
- FPD measurement [8, 22]: 55.84 FPDc
Structure (SMILES): COCCc1ccc(OCC(O)CNC(C)C)cc1 (centres undefined) [METOPROLOL]
- FPD measurement [2, 22]: More Than Half The Wells Had A Quiescence Event Or Fpdc Readings Of 0
- FPDc [2, 22]: More Than Half The Wells Had A Quiescence Event Or Fpdc Readings Of 0
- FPD measurement ([7]; 3.169 µM): 1 Values Out Of 1 Were Excluded Due To Quiescence Or 0 Fpdc
- FPDc ([7]; 3.169 µM): 1 Values Out Of 1 Were Excluded Due To Quiescence Or 0 Fpdc
- FPD measurement ([7]; 10.01 µM): 1 Values Out Of 1 Were Excluded Due To Quiescence Or 0 Fpdc
- FPDc ([7]; 10.01 µM): 1 Values Out Of 1 Were Excluded Due To Quiescence Or 0 Fpdc
- FPD measurement ([7]; 31.65 µM): 1 Values Out Of 1 Were Excluded Due To Quiescence Or 0 Fpdc
- FPDc ([7]; 31.65 µM): 1 Values Out Of 1 Were Excluded Due To Quiescence Or 0 Fpdc
- FPD measurement ([7]; 100 µM): 1 Values Out Of 1 Were Excluded Due To Quiescence Or 0 Fpdc
- FPDc ([7]; 100 µM): 1 Values Out Of 1 Were Excluded Due To Quiescence Or 0 Fpdc
